# Data taken from patent USRE38117E1, “Trioxane dimer compound having antiproliferative and antitumor activities” (Hauser, Inc., priority 1995, dated 2003).
# Legend:
# Assay type in all cases: cell-based
# SK-MEL-2 = assay: NCI 60 cell line screen (SRB), Melanoma; details: SK-MEL-2 (Melanoma)
# MALME-3M = assay: NCI 60 cell line screen (SRB), Melanoma; details: MALME-3M (Melanoma)
# UACC-62 = assay: NCI 60 cell line screen (SRB), Melanoma; details: UACC-62 (Melanoma)
# IGROVI = assay: NCI 60 cell line screen (SRB), Ovarian Cancer
# KM12 = assay: NCI 60 cell line screen (SRB), Colon Cancer
# OVCAR-4 = assay: NCI 60 cell line screen (SRB), Ovarian Cancer; details: OVCAR-4 (Ovarian Cancer)
# HS 578T = assay: NCI 60 cell line screen (SRB), Breast Cancer; details: HS 578T (Breast Cancer)
# NCI-H322M = assay: NCI 60 cell line screen (SRB), Non-Small Cell Lung Cancer
# 786-0 = assay: NCI 60 cell line screen (SRB), Renal Cancer; details: 786-0 (Renal Cancer)
# UACC-257 = assay: NCI 60 cell line screen (SRB), Melanoma; details: UACC-257 (Melanoma)
# EKVX = assay: NCI 60 cell line screen (SRB), Non-Small Cell Lung Cancer
# SF-268 = assay: NCI 60 cell line screen (SRB), CNS Cancer; details: SF-268 (CNS Cancer)
# CAKI-1 = assay: NCI 60 cell line screen (SRB), Renal Cancer; details: CAKI-1 (Renal Cancer)
# K-562 = assay: NCI 60 cell line screen (SRB), Leukemia; details: K-562 (Leukemia)
# HL-60(TB) = assay: NCI 60 cell line screen (SRB), Leukemia; details: HL-60(TB) (Leukemia)
# SK-OV-3 = assay: NCI 60 cell line screen (SRB), Ovarian Cancer; details: SK-OV-3 (Ovarian Cancer)
# MDA-MB-435 = assay: NCI 60 cell line screen (SRB), Breast Cancer; details: MDA-MB-435 (Breast Cancer)
# SN12C = assay: NCI 60 cell line screen (SRB), Renal Cancer
# M14 = assay: NCI 60 cell line screen (SRB), Melanoma
# 60 cell line panel = assay: NCI 60 cell line screen, values over the whole panel; details: mean value over the cell line panel
# SNB-75 = assay: NCI 60 cell line screen (SRB), CNS Cancer; details: SNB-75 (CNS Cancer)
# RXF 393 = assay: NCI 60 cell line screen (SRB), Renal Cancer; details: RXF 393 (Renal Cancer)
# LOX IMVI = assay: NCI 60 cell line screen (SRB), Melanoma
# MDA-MB231/ATCC = assay: NCI 60 cell line screen (SRB), Breast Cancer
# BT-549 = assay: NCI 60 cell line screen (SRB), Breast Cancer; details: BT-549 (Breast Cancer)
# HCT-116 = assay: NCI 60 cell line screen (SRB), Colon Cancer; details: HCT-116 (Colon Cancer)
# SNB-19 = assay: NCI 60 cell line screen (SRB), CNS Cancer; details: SNB-19 (CNS Cancer)
# MOLT-4 = assay: NCI 60 cell line screen (SRB), Leukemia
# HOP-92 = assay: NCI 60 cell line screen (SRB), Non-Small Cell Lung Cancer; details: HOP-92 (Non-Small Cell Lung Cancer)
# RPMI-8226 = assay: NCI 60 cell line screen (SRB), Leukemia; details: RPMI-8226 (Leukemia)
# UO-31 = assay: NCI 60 cell line screen (SRB), Renal Cancer; details: UO-31 (Renal Cancer)
# SR = assay: NCI 60 cell line screen (SRB), Leukemia
# SK-MEL-5 = assay: NCI 60 cell line screen (SRB), Melanoma; details: SK-MEL-5 (Melanoma)
# [1] = MOLT-4 (Leukemia), listed as Metaphtalate Dimer
# [2] = MOLT-4 (Leukemia), listed as metaphthalate dimer
smiles,measurement,setting,value
"COC1OC2(C)CCC3CCCC(CCOC(=O)c4cccc(C(=O)OCCC5CCCC6CCC7(C)OOC56C(OC)O7)c4)C31OO2 (centres unmarked) [Compound 10, Trioxane Bis-ester Dimer]",Log10GI50,SK-MEL-2,−5.47 M
same,Log10LC50,SK-MEL-2,>−4.30 M
same,Log10TGI,SK-MEL-2,>−4.30 M
same,Log10GI50,MALME-3M,−5.56 M
same,Log10LC50,MALME-3M,>−4.30 M
same,Log10TGI,MALME-3M,>−4.30 M
same,Log10GI50,UACC-62,−5.68 M
same,Log10LC50,UACC-62,>−4.30 M
same,Log10TGI,UACC-62,>−4.30 M
same,Log10GI50,IGROVI,−5.34 M
same,Log10LC50,IGROVI,>−4.30 M
same,Log10TGI,IGROVI,−4.42 M
same,Log10GI50,KM12,−5.97 M
same,Log10LC50,KM12,>−4.30 M
same,Log10TGI,KM12,>−4.30 M
same,Log10GI50,OVCAR-4,>−4.0 M
same,Log10LC50,OVCAR-4,>−4.30 M
same,Log10TGI,OVCAR-4,>−4.30 M
same,Log10GI50,HS 578T,−6.07 M
same,Log10LC50,HS 578T,>−4.30 M
same,Log10TGI,HS 578T,>−4.30 M
same,Log10GI50,NCI-H322M,>−4.30 M
same,Log10LC50,NCI-H322M,>−4.30 M
same,Log10TGI,NCI-H322M,>−4.0 M
same,Log10GI50,786-0,−5.57 M
same,Log10LC50,786-0,>−4.30 M
same,Log10TGI,786-0,>−4.30 M
same,Log10GI50,UACC-257,−5.03 M
same,Log10LC50,UACC-257,>−4.30 M
same,Log10TGI,UACC-257,>−4.30 M
same,Log10GI50,EKVX,−5.31 M
same,Log10LC50,EKVX,>−4.30 M
same,Log10TGI,EKVX,>−4.30 M
same,Log10GI50,SF-268,−5.36 M
same,Log10LC50,SF-268,>−4.30 M
same,Log10TGI,SF-268,>−4.30 M
same,Log10GI50,CAKI-1,−5.66 M
same,Log10LC50,CAKI-1,>−4.30 M
same,Log10TGI,CAKI-1,>−4.30 M
same,Log10GI50,K-562,−6.79 M
same,Log10LC50,K-562,>−4.30 M
same,Log10TGI,K-562,−5.35 M
same,Log10GI50,HL-60(TB),−7.21 M
same,Log10LC50,HL-60(TB),>−4.30 M
same,Log10TGI,HL-60(TB),−6.56 M
same,Log10LC50,SK-OV-3,>−4.30 M
same,Log10TGI,SK-OV-3,>−4.30 M
same,Log10GI50,MDA-MB-435,−5.93 M
same,Log10LC50,MDA-MB-435,>−4.30 M
same,Log10TGI,MDA-MB-435,>−4.30 M
same,Log10GI50,SN12C,−5.73 M
same,Log10LC50,SN12C,>−4.30 M
same,Log10TGI,SN12C,>−4.30 M
same,Log10GI50,M14,−5.08 M
same,Log10LC50,M14,>−4.30 M
same,Log10TGI,M14,>−4.30 M
same,Log10GI50 MG MID,60 cell line panel,−5.77 M
same,Log10LC50 MG MID,60 cell line panel,−4.30 M
same,Log10TGI MG MID,60 cell line panel,−4.52 M
same,Log10GI50,SNB-75,−5.56 M
same,Log10LC50,SNB-75,>−4.30 M
same,Log10TGI,SNB-75,>−4.30 M
same,Log10GI50,RXF 393,>−4.30 M
same,Log10LC50,RXF 393,>−4.30 M
same,Log10TGI,RXF 393,>−4.30 M
same,Log10GI50,LOX IMVI,−6.27 M
same,Log10LC50,LOX IMVI,>−4.30 M
same,Log10TGI,LOX IMVI,>−4.30 M
same,Log10GI50,MDA-MB231/ATCC,−5.27 M
same,Log10LC50,MDA-MB231/ATCC,>−4.30 M
same,Log10TGI,MDA-MB231/ATCC,>−4.30 M
same,Log10GI50,BT-549,−5.47 M
same,Log10LC50,BT-549,>−4.30 M
same,Log10TGI,BT-549,>−4.30 M
same,Log10GI50,HCT-116,−6.43 M
same,Log10LC50,HCT-116,>−4.30 M
same,Log10TGI,HCT-116,>−4.30 M
same,Log10GI50,SNB-19,>−4.30 M
same,Log10LC50,SNB-19,>−4.30 M
same,Log10TGI,SNB-19,>−4.30 M
same,Log10GI50,MOLT-4; MOLT-4 (Leukemia),−7.68 M
same,Log10LC50,MOLT-4; [1],>−4.30 M
same,Log10TGI,MOLT-4; [1],−6.53 M
same,Log10LC50,MOLT-4; [2],−4.05 M
same,Log10TGI,MOLT-4; [2],−5.80 M
same,drug concentration necessary to achieve primary growth inhibition (percentage growth +50),"MOLT-4; MOLT-4, read from dose response curves FIGS. 10a-10e",less than 10^−7 molar
same,Log10GI50,HOP-92,−6.01 M
same,Log10LC50,HOP-92,>−4.30 M
same,Log10TGI,HOP-92,−4.64 M
same,Log10GI50,RPMI-8226,−6.97 M
same,Log10LC50,RPMI-8226,>−4.30 M
same,Log10TGI,RPMI-8226,−5.73 M
same,Log10GI50,UO-31,−5.96 M
same,Log10LC50,UO-31,>−4.30 M
same,Log10TGI,UO-31,>−4.30 M
same,Log10GI50,SR,<−8.30 M
same,Log10LC50,SR,>−4.30 M
same,Log10TGI,SR,−7.49 M
same,Log10GI50,SK-MEL-5,−5.57 M
same,Log10LC50,SK-MEL-5,>−4.30 M
same,Log10TGI,SK-MEL-5,>−4.30 M
